Measurements taken from patent publication US5241047A, “Synthetic peptides and mixtures thereof for detecting HIV antibodies” (BioChem Pharma Inc., priority 1990, dated 1993).
Positions of bridges follow the written chain, without caps; N, C: chain ends. Residues, ends and D or L forms follow the SMILES beside them.

Legend:
[1] = test system: HIV-1 antibodies; details: cited from earlier work
[2] = test system: HIV-1 antibodies; test: ELISA with peptide-coated wells, HIV-1 antibody positive samples (diluted plasma pool, seroconversion samples); type: binding, human
Experimental: (§1) A preferred convenient and classical technique for the determination of antibodies against HIV-1 or HIV-2 using a peptide or a peptide mixture of the present invention is an enzyme-linked immunosorbent assay (ELISA). In this assay, for example, a peptide, peptide mixture or combination of the present invention is adsorbed onto, or covalently coupled to, the wells of a microtiter plate. The wells are then treated with the sera or analyte to be tested. After washing, antihuman IgG or antihuman IgM labeled with peroxidase is added to the wells. The determination of the peroxidase is performed with a corresponding substrate, e.g., with o-phenylene diamine. Without departing from the usefulness of the illustrative assay, the peroxidase can be exchanged by another label, e.g., by a radioactive, fluorescence chemiluminescence or infrared emitting label.
(§2) O.D. Values were obtained at 450 nm and the blank values measured with the sample dilution buffer were not subtracted.
(§3) Samples NEIA-2*2, BBI-1-162 to 168, 87B140, 87L139, 87V103 are all negative for HIV antibodies. Sample LSPQ-S9-1 is an early seroconverter (HIV-1). The series labeled CAP-113 to CAP-120 corresponds to a pool of seven HIV-1 positive plasma samples serially diluted with an HIV-negative plasma. CAP-113 is the pool diluted 50-fold with the HIV-negative plasma; CAP-114 is diluted 100-fold; CAP-115 is diluted 200-fold; etc. Similarly, the series labeled CAP-222 to CAP-230 corresponds to a pool of seven HIV-2 confirmed seropositive plasma samples. CAP-222 is diluted by 50 with an HIV-negative plasma; CAP-223 by 100; etc. Before the assay is done, each sample, including the CAP-series, is further diluted by 50 with the sample dilution buffer. In these tests, the cut-off for seropositivity is defined as the sum of the O.D. value for sample NEIA-2*2 plus 0.100.
Each well of the microtiter plate is saturated with 100 μl of a solution containing a peptide or mixture of peptides (5 μg/ml) and left overnight. The wells are emptied and washed twice with a washing buffer (Tris, 0.043M; NaCl, 0.5M; thimerosal, 0.01% w/v; Tween 20, 0.05% v/v; pH 7.4). The wells are then saturated with 0.35 ml of washing buffer for 1 hr. at 37° C. and washed once with the same buffer. Serum samples to be analyzed are diluted with specimen buffer (washing buffer plus casein, 0.05% w/v). The wells are rinsed with washing buffer prior to the addition of the diluted serum sample (0.1 ml). These are left to incubate for 1 hr. at room temperature. The wells are then emptied, washed twice rapidly and then once for two minutes with washing buffer. […] The wells are then emptied and washed twice rapidly with washing buffer and then five times in which the buffer was in contact with the well 2 minutes per washing. The substrate solution (3,3',5,5'-tetramethylbenzidine, 8 mg per ml of DMSO) is diluted with 100 volumes 0.1M citrate-acetate buffer, pH 5.6 containing 0.1% v/v of 30% H2 O2 and added to each well (0.1 ml per well). After 10 minutes the contents of each well is treated with 0.1 ml 2N H2 SO4 and the optical density read at 450 nm. All determinations are done in duplicate. […]

[3] = test system: HIV-2 antibodies; test: ELISA with peptide-coated wells, HIV-2 seropositive plasma pool serially diluted; type: binding, human; details: Test 314
Experimental: as §1, §2, §3
(§4) Each well of the microtiter plate is saturated with 100 μl of a solution containing a peptide or mixture of peptides (5 μg/ml) and left overnight. The wells are emptied and washed twice with a washing buffer (Tris, 0.043M; NaCl, 0.5M; thimerosal, 0.01% w/v; Tween 20, 0.05% v/v; pH 7.4). The wells are then saturated with 0.35 ml of washing buffer for 1 hr. at 37° C. and washed once with the same buffer. Serum samples to be analyzed are diluted with specimen buffer (washing buffer plus casein, 0.05% w/v). The wells are rinsed with washing buffer prior to the addition of the diluted serum sample (0.1 ml). These are left to incubate for 1 hr. at room temperature. The wells are then emptied, washed twice rapidly and then once for two minutes with washing buffer. […] The wells are then emptied and washed twice rapidly with washing buffer and then five times in which the buffer was in contact with the well 2 minutes per washing. The substrate solution (3,3',5,5'-tetramethylbenzidine, 8 mg per ml of DMSO) is diluted with 100 volumes 0.1M citrate-acetate buffer, pH 5.6 containing 0.1% v/v of 30% H2 O2 and added to each well (0.1 ml per well). After 10 minutes the contents of each well is treated with 0.1 ml 2N H2 SO4 and the optical density read at 450 nm. All determinations are done in duplicate.
(§5) Peptide cocktails were prepared by mixing together equal volumes of two peptide solutions each at 10 ug/ml. One cocktail used peptides BCH-87c and BCH-202c and the other cocktail was a mixture of BCH-87ck and BCH-202ck. Each cocktail was used to coat two series of plates as described earlier.

[4] = test system: HIV antibodies; test: ELISA with peptide-coated wells, samples negative for HIV antibodies or not described; type: binding, human
Experimental: as §1, §2, §3, §4, §5

SGKLICTTAVPWNAS [short synthetic peptide spanning residues 606 to 620 of gp41 (HIV-1)]
sensitivity ([1]; U.S. Ser. No. 120,027, 6 of 57 confirmed positive not detected): 89% | specificity ([1]; U.S. Ser. No. 120,027): 63/63

CC[C@H](C)[C@H](NC(=O)CNC(=O)[C@H](CC(C)C)NC(=O)[C@H](CC(C)C)NC(=O)[C@H](CCC(N)=O)NC(=O)[C@H](CCC(N)=O)NC(=O)[C@H](CC(=O)O)NC(=O)[C@H](CCCCN)NC(=O)[C@H](CC(C)C)NC(=O)[C@H](Cc1ccc(O)cc1)NC(=O)[C@H](CCCNC(=N)N)NC(=O)[C@H](CCC(=O)O)NC(=O)[C@@H](NC(=O)[C@H](C)NC(=O)[C@H](CC(C)C)NC(=O)[C@@H](NC(=O)[C@H](CCCCN)NC(=O)[C@@H](N)CCCCN)[C@@H](C)CC)C(C)C)C(=O)N[C@@H](Cc1c[nH]c2ccccc12)C(=O)NCC(=O)N[C@H]1CSSC[C@@H](C(=O)N[C@H](C(=O)N[C@H](C(=O)N[C@@H](C)C(=O)N[C@H](C(=O)N2CCC[C@H]2C(=O)N[C@@H](Cc2c[nH]c3ccccc23)C(=O)N[C@@H](CC(N)=O)C(=O)N[C@@H](C)C(=O)N[C@@H](CO)C(=O)O)C(C)C)[C@@H](C)O)[C@@H](C)O)NC(=O)[C@H]([C@@H](C)CC)NC(=O)[C@H](CC(C)C)NC(=O)[C@H](CCCCN)NC(=O)CNC(=O)[C@H](CO)NC1=O [BCH-266] (H-KKILAVERYLKDQQLLGIWGCSGKLICTTAVPWNAS-OH; disulfide 21-27)
O.D. 450 nm ([2]; Test 314, sample CAP-113 (HIV-1 positive plasma pool diluted 50-fold)): > 2.8 | O.D. 450 nm ([2]; Test 314, sample CAP-114 (HIV-1 positive pool diluted 100-fold)): > 2.8 | O.D. 450 nm ([2]; Test 314, sample CAP-115 (HIV-1 positive pool diluted 200-fold)): > 2.8 | O.D. 450 nm ([2]; Test 314, sample CAP-116 (HIV-1 positive pool, serial dilution)): 2.376 | O.D. 450 nm ([2]; Test 314, sample CAP-117 (HIV-1 positive pool, serial dilution)): 1.569 | O.D. 450 nm ([2]; Test 314, sample CAP-118 (HIV-1 positive pool, serial dilution)): 0.934 | O.D. 450 nm ([2]; Test 314, sample CAP-119 (HIV-1 positive pool, serial dilution)): 0.567 | O.D. 450 nm ([2]; Test 314, sample CAP-120 (HIV-1 positive pool, serial dilution)): 0.376 | O.D. 450 nm ([2]; Test 350, sample CAP-10 (progressively higher dilutions)): > 2.8 | O.D. 450 nm ([2]; Test 350, sample CAP-11 (progressively higher dilutions)): > 2.8 | O.D. 450 nm ([2]; Test 350, sample CAP-12 (progressively higher dilutions)): > 2.8 | O.D. 450 nm ([2]; Test 350, sample CAP-13 (progressively higher dilutions)): 2.021 | O.D. 450 nm ([2]; Test 350, sample CAP-14 (progressively higher dilutions)): 1.248 | O.D. 450 nm ([2]; Test 350, sample CAP-15 (progressively higher dilutions)): 0.680 | O.D. 450 nm ([2]; Test 350, sample CAP-16 (progressively higher dilutions)): 0.366 | O.D. 450 nm ([2]; Test 350, sample CAP-17 (progressively higher dilutions)): 0.198 | O.D. 450 nm ([2]; Test 350, sample CAP-18 (progressively higher dilutions)): 0.116 | O.D. 450 nm ([2]; Test 350, sample CAP-19 (progressively higher dilutions)): 0.056 | O.D. 450 nm ([3]; sample CAP-223 (HIV-2 positive pool diluted by 100)): 0.075 | O.D. 450 nm ([3]; sample CAP-224 (HIV-2 positive pool, serial dilution)): 0.084 | O.D. 450 nm ([3]; sample CAP-225 (HIV-2 positive pool, serial dilution)): 0.135 | O.D. 450 nm ([3]; sample CAP-226 (HIV-2 positive pool, serial dilution)): 0.140 | O.D. 450 nm ([3]; sample CAP-227 (HIV-2 positive pool, serial dilution)): 0.085 | O.D. 450 nm ([3]; sample CAP-228 (HIV-2 positive pool, serial dilution)): 0.091 | O.D. 450 nm ([3]; sample CAP-230 (HIV-2 positive pool, serial dilution)): 0.123 | O.D. 450 nm ([4]; Test 314, sample BBI-1-162 (negative for HIV antibodies)): 0.028 | O.D. 450 nm ([4]; Test 314, sample BBI-1-169 (not described)): 0.138 | O.D. 450 nm ([4]; Test 314, sample BBI-1-172 (not described)): 0.030 | O.D. 450 nm ([4]; Test 314, sample NEIA-2*2 (negative for HIV antibodies)): 0.069 | O.D. 450 nm ([4]; Test 350, sample 2-87-L-139 (negative for HIV antibodies)): 0.147 | O.D. 450 nm ([4]; Test 350, sample 2-87-V-103 (negative for HIV antibodies)): 0.020 | O.D. 450 nm ([4]; Test 350, sample 89-D-307 (not described)): 0.030 | O.D. 450 nm ([4]; Test 350, sample NEIA-2*2 (negative for HIV antibodies)): 0.023

SGKLIC
immunoreactivity with HIV-1 positive sera ([1]; Gnann et al. 1987, 22 HIV-1 positive sera tested): not immunoreactive
